pIC50: −log10 of the molar value. “And” between values parts separate entries of the source, which are not always exact repeats. Identical values can stand only once.
What was measured:
[1] = kH=Ca/Pg, concentration in water over partial pressure in the gas phase; cited from earlier work
[2] = test system: S. cerevisiae CBS 8066; assay: Anoxic chemostat fermentation under glucose limitation in absence or presence of acetaldehyde; format: cell-based, Saccharomyces cerevisiae; conditions: for Δ ethanol produced / Δ glycerol produced: relative to steady state 1 without acetaldehyde; for acetaldehyde concentration in chemostat sample / acetic acid concentration in chemostat sample / ethanol concentration in chemostat sample / glucose concentration in chemostat sample / glycerol concentration in chemostat sample / pyruvic acid concentration in chemostat sample / succinic acid concentration in chemostat sample: dilution rate 0.11 h^−1, duplicate samples A and B
Procedure: (§1) The column was eluted at 60° C. with 0.5 g/l H2S04 at a flow rate of 0.6 ml min^−1 . Detection was by means of a Waters 2410 refractive-index detector and a Waters 2487 UV detector. Initial and final glycerol concentrations were further determined using an enzymatic determination kit (Rbiopharm AG, Darmstadt, Germany).
The mineral salts medium employed was based on standard media (Bruinenberg et al. 1983. Journal of General Microbiology 129:965-971; Verduin et al 1990. Journal of General Microbiology 136:395-403). It contained the following per liter of demineralized water: (NH4)2SO4, 5 g; KH2PO4, 3 g; MgSO4.7H2O, 0.5 g; EDTA, 15 mg; ZnSO4.7H20, 4.5 mg; CoCl2 6H2O, 0.3 mg; MnCl2 4H20, 1 mg; CuSO4 5H20, 0.3 mg; CaCl2. 2H20, 4.5 mg; FeSO4 7H20, 3 mg; Na2MoO4. 2H2O, 0.4 mg; H3BO3, 1 mg; KI, 0.1 mg; and 0.025 ml silicone antifoam (BDH). After heat sterilization at 120° C. and cooling, filter sterilized vitamins were added: biotin, 0.05 mg; calcium pantothenate, 1 mg; nicotinic acid, 1 mg; inositol, 25 mg; thiamin.HCl, 1 mg; pyridoxine.HCl, 1 mg; and para-aminobenzoic acid, 0.2 mg. Ergosterol and Tween 80 were dissolved in pure ethanol and steamed at 100° C. for 10 minutes before they were added to the medium to give final concentrations of 10 and 400 mg/l, respectively, and a final concentration of 38 mM ethanol. […] The sterilized glucose solution was added to the sterile mineral salts medium to give the required final concentration.
Anoxic chemostat cultivation of the yeasts was done at 30° C. in a fermenter with a working volume of 1 liter and at a stirring speed of 600 r.p.m. The pH was automatically controlled at pH=5 by titration with 2 M KOH. The condenser at the outlet of the gas stream was connected to a cryostat and cooled at 2° C. The condensate was returned into the fermentation vessel. The tubing on the entire fermenter set-up (including medium- and waste-reservoirs) consisted of material (Norprene tubing) that is very poorly permeable for oxygen. The fermenter and the medium reservoir (with a magnetic stirrer) were sparged with certificated ultra-pure nitrogen prior to the addition of acetaldehyde to the reservoir.
Strain S. cerevisiae CBS 8066 was cultivated in chemostat culture at a dilution rate of 0.11 h^−1. The glucose concentration in the medium reservoir was […] in each run. Three separate steady states were obtained in either the absence or presence of acetaldehyde. The effect of the aldehyde on the fermentation was tested by adding the compound to the medium reservoir after a steady state situation in its absence (medium and samples “1”) had been established. […] In each of the three steady states (after 3-5 volume changes), the fermentation medium in the fermenter was analyzed for various compounds as summarized in Tables 1 and 2.

[3] = test system: S. cerevisiae CBS 8066; assay: Small-scale batch cultivation testing the effect of acetaldehyde on formation of ethanol and glycerol; format: cell-based, Saccharomyces cerevisiae; conditions: 1.76 mM acetaldehyde in, single addition at start; 280 mM glucose at start; 90 minutes of incubation
Procedure: as §1
Carbon dioxide was allowed to escape from the bottles by inserting a needle in the septum of the cap. The bottles were incubated stationary. A sample per bottle was taken at the start of the experiment and after 90 minutes of incubation.
The initial cell concentration was 0.45 g/l dry biomass. Acetaldehyde was supplied to the bottle in a single addition at the start of the incubation. In a separate control run, no acetaldehyde was supplied.

[4] = test system: Ethanol Red strain; assay: Batch fermentation testing acetaldehyde additions at high ethanol concentrations; format: cell-based; conditions: acetaldehyde added once ethanol had reached 80 g/l, controlled between 0.06 and 0.1 g/l; 180 minutes without acetaldehyde
Procedure: The stirring speed was set at 300 r.p.m. and the pH of the mineral salts medium containing 280 g/l glucose was kept at 5 by adding 2 M NaOH. The condenser at the outlet of the gas stream was connected to a cryostat and cooled at 2° C. The condensate was returned into the fermentation vessel. […] Sampling was from a loop kept at 35° C. for circulating gas from the headspace. […] The solution entered in the aqueous phase via a needle at the outlet of the tubing.
The mineral salts medium was employed with the addition of yeast extract at 1 g/l. The initial cell concentration was 0.5 g/l dry biomass. Air was supplied to the headspace of the fermenter at 15 ml/min during the first 2 hours of cultivation after which conditions were kept anoxic. Glucose was added initially at 230 g/l. […] The concentration was monitored from the headspace and controlled in the fermenter liquid between 0.06 and 0.1 g/l. In a control experiment, no acetaldehyde was supplied.

[5] = test system: S. cerevisiae CEN.PK2-1C; assay: Evolutionary engineering for enhanced tolerance to acetaldehyde (oxic batch cultivation); format: cell-based, Saccharomyces cerevisiae; conditions: batch system; compared to the parent strain in the absence of acetaldehyde
Procedure: The flasks contained 20 ml mineral salts medium supplied with glucose (12 g/l) and they were incubated on a rotary shaker at 400 r.p.m. Air could enter in the flasks via cotton plugs.
The organisms were cultivated under oxic conditions in a batch-wise mode. The initial pH of the mineral salts medium was set at 6 by titrating with KOH and glucose was added at 12 g/l. […] The newly acquired strains retained their ability to withstand higher acetaldehyde levels also when cultivating them anoxically in mineral salts medium with glucose and for prolonged periods of times. This subculturing was by taking an aliquot of 0.5 ml from a culture that had consumed all glucose and by transferring this inoculum to fresh medium (50 ml).

[6] = test system: lactic acid bacteria, belonging to Lactobacillus, Pediococcus, Leuconostoc and Weissella; assay: Semi-anoxic co-culture of yeast with lactic acid bacteria at increasing acetaldehyde concentrations; format: cell-based; conditions: increasing concentrations of acetaldehyde in subsequent batches; without acetaldehyde the bacteria remained present
Procedure: Media for plates (1.5% agar) for S. cerevisiae were the mineral salts medium supplement with 2% glucose and for lactic acid bacteria the de Man, Rogosa and Sharpe (MRS) medium. Cycloheximide (0.1 g/l) was added to the plates in case mixed cultures of yeast and lactic acid bacteria were studied.
Semi-anoxic batch cultivation of the yeasts together with lactic acid bacteria was done at 30° C. in 100-ml Erlenmeyer flasks. The flasks contained 50 ml mineral salts medium supplied with glucose (12 g/l) and they were incubated without shaking. Air could enter in the flasks via cotton plugs.
S. cerevisiae CEN.PK2-1C was subjected to evolutionary engineering analogous to the procedure described above, except that now semi-anoxic conditions were employed. Eight strains of lactic acid bacteria, belonging to Lactobacillus, Pediococcus, Leuconostoc and Weissella, were inoculated as well. The dynamics of the quantitative growth of the 9 organisms thus present as co-culture was followed during the procedure of evolutionary engineering. During each successive transfer step, the suspension after growth was plated on media that allow growth of either S. cerevisiae or of the 8 strains of lactic acid bacteria. […] Under this circumstance, the lactic acid bacteria remained present in the system.

[7] = test system: Lactococcus lactis; conditions: cited from earlier work
[8] = Steady state 2 (6 mM acetaldehyde supplied)
[9] = Steady state 3 (15 mM acetaldehyde supplied)
[10] = steady state 2, 6 mM acetaldehyde supplied
[11] = steady state 3, 15 mM acetaldehyde supplied

Compound: CCO [ethanol]
- Henry's law constant kH [1]: approximately 200 M/atm

Compound: O=O [oxygen]
- Henry's law constant kH [1]: 1.3*10^−3 M/atm

Compound: CC=O [acetaldehyde]
- acetaldehyde consumed [2, 8]: -6 mM
- glucose consumed [2, 8]: 136 mM
- Δ ethanol produced [2, 8]: 15 mM
- Δ glycerol produced [2, 8]: -6 mM
- acetaldehyde consumed [2, 9]: -16 mM
- glucose consumed [2, 9]: 136 mM
- Δ ethanol produced [2, 9]: 27 mM
- Δ glycerol produced [2, 9]: -11 mM
- acetaldehyde concentration in chemostat sample [2, 10]: 0.03 mM
- acetic acid concentration in chemostat sample [2, 10]: 0.64 mM and 0.54 mM
- ethanol concentration in chemostat sample [2, 10]: 243.13 mM and 244.74 mM
- glucose concentration in chemostat sample [2, 10]: 0.48 mM and 0.46 mM
- glycerol concentration in chemostat sample [2, 10]: 9.47 mM and 9.60 mM
- pyruvic acid concentration in chemostat sample [2, 10]: 0.56 mM and 0.51 mM
- succinic acid concentration in chemostat sample [2, 10]: 0.43 mM and 0.45 mM
- acetaldehyde concentration in chemostat sample [2, 11]: 0.04 mM
- acetic acid concentration in chemostat sample [2, 11]: 0.78 mM and 0.69 mM
- ethanol concentration in chemostat sample [2, 11]: 255.35 mM and 255.25 mM
- glucose concentration in chemostat sample [2, 11]: 0.44 mM and 0.48 mM
- glycerol concentration in chemostat sample [2, 11]: 4.04 mM and 4.02 mM
- pyruvic acid concentration in chemostat sample [2, 11]: 0.48 mM
- succinic acid concentration in chemostat sample [2, 11]: 0.45 mM and 0.50 mM
- Acetaldehyde at end [3]: 1.01 mM
- Ethanol at end [3]: 6.67 mM
- Glycerol at end [3]: 0.58 mM
- time required to reach 98 g/l of ethanol in the liquid [4]: 158 min
- acetaldehyde concentration in whose presence the evolved strain grew without a noticeable change in growth rate [5]: 0.5 g/L
- fate of the lactic acid bacteria in the co-culture [6]: disappeared
- concentration resulting in a reduction of the growth rate by 50% [7]: 0.4 kg/m^3
- minimum inhibitory concentration (MIC) [7]: 35 mM and 1.5 kg/m^3
- pIC50 ([7]; read-out: concentration resulting in a reduction of the growth rate by 50%): 2.05
- Henry's law constant kH [1]: 15 M/atm

— patent publication US20180030482A1 (Moralco B.V., priority 2014, published 2018)
